Source: US20110105543A1, “NOVEL TRIARYL DERIVATIVES USEFUL AS MODULATORS OF NICOTINIC ACETYLCHOLINE RECEPTORS” (NeuroSearch A/S, priority 2008, published 2011)

Experiments:
nAChR α7 receptors = molecular target: T1, nAChR α7 receptors (Homo sapiens, UniProt P36544); test: Positive modulation of acetylcholine-induced currents at wild-type nAChR α7 receptors expressed in Xenopus laevis oocytes (two-electrode voltage clamp); type: cell-based; details: for effect on acetylcholine-induced current amplitude: compound 0.01-31.6 μM applied 30 s before and during 100 μM acetylcholine; for maximal modulation of the acetylcholine response (Imax) / EC50: nAChR α7 in Xenopus oocytes, 100 μM acetylcholine; for maximal modulation of the acetylcholine response (Imax): (test-control)/control*100%; for EC50: clamped at -60 mV, compound 0.01-31.6 μM, read-out: calculated EC50 value for positive modulation of 100 μM acetylcholine responses
T1 construct: expressed in transfected cells; host or cells: Xenopus laevis oocytes
T1 sequence (P36544 23-502): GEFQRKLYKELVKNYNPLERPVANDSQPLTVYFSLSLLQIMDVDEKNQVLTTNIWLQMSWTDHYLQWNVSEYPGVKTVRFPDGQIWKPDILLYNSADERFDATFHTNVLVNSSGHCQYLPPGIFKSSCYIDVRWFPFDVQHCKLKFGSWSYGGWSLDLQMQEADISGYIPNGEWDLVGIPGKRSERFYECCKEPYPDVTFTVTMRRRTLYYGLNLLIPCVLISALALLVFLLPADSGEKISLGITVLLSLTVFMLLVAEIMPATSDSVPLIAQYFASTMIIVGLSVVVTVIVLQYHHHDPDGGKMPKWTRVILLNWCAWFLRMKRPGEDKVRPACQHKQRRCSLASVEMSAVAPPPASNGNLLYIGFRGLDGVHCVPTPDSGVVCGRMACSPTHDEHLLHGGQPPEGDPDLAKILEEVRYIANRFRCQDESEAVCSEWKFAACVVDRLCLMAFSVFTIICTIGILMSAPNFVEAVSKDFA
Protocol: In this example the positive modulation of wild-type nAChR α7 receptors by Compound 2 (i.e. 4-[5-Amino-6-(2,4-dichloro-phenyl)-pyrimidin-4-yl]-phenol; FIGS. 1A and 1B) and by Compound 6 (i.e. 2′-Amino-5′,2″-difluoro-4″-trifluoromethyl-[1,1′;3′,1″]terphenyl-4-ol; FIGS. 2A and 2B) was determined using nAChR α7 receptors heterologously expressed in Xenopus laevis oocytes.
The electrical current through the nAChR α7 channel was measured using conventional two-electrode voltage clamp and nAChR α7 currents were activated by applying pulses of agonist-containing solution onto the nAChR α7 expressing oocyte.
In brief, the oocytes were placed in a recording chambers and continuously superfused with an Oocyte Ringer (OR) solution containing 90 mM NaCl, 2.5 mM KCl, 2.5 mM CaCl2, 1 mM MgCl2 and 5 mM HEPES (pH adjusted to 7.4). The oocytes were clamped at −60 mV and currents were induced by applying 20 s pulses of 100 μM acetylcholine dissolved in OR. The intervals between the acetylcholine applications were 5 minutes, during which the oocytes were washed with OR. The first three applications were control applications to insure a constant response level of 100 μM acetylcholine.
The positive modulation in the presence of Compound 2 or Compound 6 was calculated as (test-control)/control*100% and the concentration response curve for this positive modulation was fitted to the sigmoidal logistic equation: I=Imax/(1+(EC50/[compound])^n), where Imax represents the maximal modulation of the control response, EC50 is the concentration causing a half maximal response, and n is the slope coefficient.

Row | melting point | SMILES | also measured
1 | 133.6 to 134.8 °C | Nc1c(-c2ccc(O)cc2)cncc1-c1ccc(C(F)(F)F)cc1F [Compound 22, 4-[4-Amino-5-(2-fluoro-4-trifluoromethyl-phenyl)-pyridin-3-yl]-phenol] | –
2 | 141.3 to 142.1 °C | COc1ccc(-c2ncnc(-c3ccc(Cl)cc3Cl)c2N)cc1 [Compound 1, 4-(2,4-Dichloro-phenyl)-6-(4-methoxy-phenyl)-pyrimidin-5-ylamine] | –
3 | 97.8 to 98.9 °C | Nc1c(-c2ccc(O)cc2)cc(F)cc1-c1ccc(C(F)(F)F)cc1F [Compound 6, 2′-Amino-5′,2″-difluoro-4″-trifluoromethyl-[1,1′;3′,1″]terphenyl-4-ol] | effect on acetylcholine-induced current amplitude (nAChR α7 receptors): robust increase; maximal modulation of the acetylcholine response (Imax) (nAChR α7 receptors): 361%; EC50 (nAChR α7 receptors): 1400 nM
4 | 150 to 151.5 °C | COc1ccc(-c2ncnc(-c3ccc(C(F)(F)F)cc3F)c2N)c(O)c1 [Compound 9, 2-[5-Amino-6-(2-fluoro-4-trifluoromethyl-phenyl)-pyrimidin-4-yl]-5-methoxy-phenol] | –
5 | 85.2 to 86.3 °C | COc1ccc(-c2cc(F)cc(-c3ccc(C(F)(F)F)cc3F)c2N)cc1 [Compound 5, 5′,2″-Difluoro-4-methoxy-4″-trifluoromethyl-[1,1′;3′,1″]terphenyl-2′-ylamine] | –
6 | 226.3 to 227.5 °C | Nc1nc(-c2ccc(O)cc2)c(N)c(-c2ccc(C(F)(F)F)cc2F)n1 [Compound 18, 4-[2,5-Diamino-6-(2-fluoro-4-trifluoromethyl-phenyl)-pyrimidin-4-yl]-phenol] | –
7 | 169.5 to 170.3 °C | COc1ccc(-c2cncc(-c3ccc(C(F)(F)F)cc3F)c2N)cc1 [Compound 21, 3-(2-Fluoro-4-trifluoromethyl-phenyl)-5-(4-methoxy-phenyl)-pyridin-4-ylamine] | –
8 | 100.8 to 101.8 °C | COc1ccc(-c2nc(C)nc(-c3ccc(C(F)(F)F)cc3F)c2[N+](=O)[O-])cc1 [Compound 13, 4-(2-Fluoro-4-trifluoromethyl-phenyl)-6-(4-methoxy-phenyl)-2-methyl-5-nitro-pyrimidine] | –
9 | 103 to 106 °C | Nc1c(-c2ccc3[nH]ccc3c2)cncc1-c1ccc(C(F)(F)F)cc1F [Compound 23, 3-(2-Fluoro-4-trifluoromethyl-phenyl)-5-(1H-indol-5-yl)-pyridin-4-ylamine] | –
10 | 104.5 to 105.2 °C | COc1ccc(-c2nc(C)nc(-c3ccc(C(F)(F)F)cc3F)c2N)cc1Cl [Compound 12, 4-(3-Chloro-4-methoxy-phenyl)-6-(2-fluoro-4-trifluoromethyl-phenyl)-2-methyl-pyrimidin-5-ylamine] | –
11 | 97.3 to 98.2 °C | Nc1c(-c2ccc(O)cc2)ncnc1-c1ccc(Cl)cc1Cl [Compound 2, 4-[5-Amino-6-(2,4-dichloro-phenyl)-pyrimidin-4-yl]-phenol] | effect on acetylcholine-induced current amplitude (nAChR α7 receptors): robust increase; maximal modulation of the acetylcholine response (Imax) (nAChR α7 receptors): 299%; EC50 (nAChR α7 receptors): 1200 nM
12 | 175.4 to 176.9 °C | Cc1nc(-c2ccc(O)cc2)c(N)c(-c2ccc(C(F)(F)F)cc2F)n1 [Compound 16, 4-[5-Amino-6-(2-fluoro-4-trifluoromethyl-phenyl)-2-methyl-pyrimidin-4-yl]-phenol] | –
13 | 216.1 to 217.8 °C | Nc1c(-c2ccc3[nH]ccc3c2)ncnc1-c1ccc(C(F)(F)F)cc1F [Compound 10, 4-(2-Fluoro-4-trifluoromethyl-phenyl)-6-(1H-indol-5-yl)-pyrimidin-5-ylamine] | –
14 | 162.5 to 163.3 °C | Cc1nc(-c2ccc3c(c2)OCO3)c(N)c(-c2ccc(C(F)(F)F)cc2F)n1 [Compound 14, 4-Benzo[1,3]-dioxol-5-yl-6-(2-fluoro-4-trifluoromethyl-phenyl)-2-methyl-pyrimidin-5-ylamine] | –
15 | 189.4 to 191.2 °C | Nc1c(-c2ccc(S(N)(=O)=O)cc2)cc(F)cc1-c1ccc(C(F)(F)F)cc1F [Compound 25, 2′-Amino-5′,2″-difluoro-4″-trifluoromethyl-[1,1′;3′,1″]terphenyl-4-sulfonic acid amide] | –
16 | 174.8 to 176.1 °C | Nc1c(-c2ccc(S(N)(=O)=O)cc2)ncnc1-c1ccc(C(F)(F)F)cc1F [Compound 11, 4-[5-Amino-6-(2-fluoro-4-trifluoromethyl-phenyl)-pyrimidin-4-yl]-benzenesulfonamide] | –
17 | 125.8 to 127.1 °C | COc1ccc(-c2nc(N)nc(-c3ccc(C(F)(F)F)cc3F)c2N)cc1 [Compound 17, 4-(2-Fluoro-4-trifluoromethyl-phenyl)-6-(4-methoxy-phenyl)-pyrimidine-2,5-diamine] | –
18 | 215.3 to 216.2 °C | COc1ccc(-c2cnnc(-c3ccc(C(F)(F)F)cc3F)c2N)cc1 [Compound 19, 3-(2-Fluoro-4-trifluoromethyl-phenyl)-5-(4-methoxy-phenyl)-pyridazin-4-ylamine] | –
19 | 129.2 to 130.6 °C | COc1ccc(-c2nc(C)nc(-c3ccc(C(F)(F)F)cc3F)c2N)cc1 [Compound 15, 4-(2-Fluoro-4-trifluoromethyl-phenyl)-6-(4-methoxy-phenyl)-2-methyl-pyrimidin-5-ylamine] | –
20 | 251 to 252.2 °C | Nc1c(-c2ccc(O)cc2)cnnc1-c1ccc(C(F)(F)F)cc1F [Compound 20, 4-[5-Amino-6-(2-fluoro-4-trifluoromethyl-phenyl)-pyridazin-4-yl]-phenol] | –
21 | 191.5 to 192.8 °C | COc1ccc(-c2ncnc(-c3ccc(C(F)(F)F)cc3F)c2N)c(OC)c1 [Compound 7, 4-(2,4-Dimethoxy-phenyl)-6-(2-fluoro-4-trifluoromethyl-phenyl)-pyrimidin-5-ylamine] | –
